Key:
[1] = tested on: IC patients; conditions: intravesical DMSO therapy; cited from earlier work
[2] = tested on: IC patients; experiment: heparin versus PPS in the intravesical therapeutic solution (preliminary data); format: in vivo, human
Excerpt: Data from preliminary studies for one embodiment of an intravesical therapeutic solution can provide immediate temporary relief of the symptoms of urgency and pain in IC patients [Dell and Parsons, Abstract presented at NIDDK/Interstitial Cystitis Association Symposium, Research Insights into Interstitial Cystitis, Alexandria, Va., (Oct. 30-Nov. 1, 2003); Davis, et al. Abstract presented at NIDDK/Interstitial Cystitis Association Symposium, Research Insights into Interstitial Cystitis, Alexandria, Va. (Oct. 30-Nov. 1, 2003); Parsons, Contemp Urol 15: 22-24, 27-28, 31-32, 35 (2003)]. One of the methods of the present invention combines heparin and lidocaine buffered with sodium bicarbonate to pH >8.0 via direct catheter delivery to the bladder, providing immediate and long term pain relief for chronic IC sufferers. In some embodiments, the solution contains 10,000-40,000 units of heparin. In some embodiments, heparin is replaced by 100-200 mg PPS (the contents of an oral capsule dissolved in 10 mL buffered normal saline), 10 mL 1% lidocaine or 16 mL 2% lidocaine, and 3 mL 8.4% sodium bicarbonate (w/v). The solution is instilled into the empty bladder and retained for approximately 30 minutes. The principal difference between this therapeutic solution and other such solutions is the presence of sodium bicarbonate, which dramatically increases the absorption of the lidocaine. […]

[3] = tested on: IC; conditions: oral PPS, after 8 to 12 months of therapy; cited from earlier work

Compound	IC patients treated who benefit [1]	efficacy in the therapeutic solution, heparin compared with PPS [2]	response rate [3]
C[S+](C)[O-] [DMSO, dimethylsulfoxide]	approximately 50%		
heparin		equal efficacy	
pentosan polysulfate sodium [PPS]		equal efficacy	approximately 70%
